Data on 13 compounds can be found in publication PMC6484527 (Slas Discovery, 2018).

Read-outs that look alike come from different tables or passages of the source.

For assay [1], the target named is T1, B-Raf (Homo sapiens, UniProt P15056, V600E). Kind of assay: cell-based. It is filed as cell-based. Conditions: for EC50: B-Raf ITDRFCETSA pEC50, 2 h incubation with live A375 cells, mean ± standard deviation of ⩾3 technical repeats.
The target of assay [2] is T1, B-Raf. As to the kind of experiment: B-Raf CETSA HT single-concentration screen of kinase inhibitor library. Type of assay: cell-based. Conditions: 30 µM, 2 h incubation with live A375 cells, 49 °C heatshock, two technical repeats.
The next assay has as its target purified B-Raf protein (Homo sapiens, UniProt P15056). Kind of assay: Differential scanning fluorimetry with purified B-Raf protein. Type of assay: binding. Conditions: same concentration (30 µM); data not shown.
Where [3] appears, read: A375 cells, at least three technical repeats.

T1 sequence (P15056 whole entry V600E): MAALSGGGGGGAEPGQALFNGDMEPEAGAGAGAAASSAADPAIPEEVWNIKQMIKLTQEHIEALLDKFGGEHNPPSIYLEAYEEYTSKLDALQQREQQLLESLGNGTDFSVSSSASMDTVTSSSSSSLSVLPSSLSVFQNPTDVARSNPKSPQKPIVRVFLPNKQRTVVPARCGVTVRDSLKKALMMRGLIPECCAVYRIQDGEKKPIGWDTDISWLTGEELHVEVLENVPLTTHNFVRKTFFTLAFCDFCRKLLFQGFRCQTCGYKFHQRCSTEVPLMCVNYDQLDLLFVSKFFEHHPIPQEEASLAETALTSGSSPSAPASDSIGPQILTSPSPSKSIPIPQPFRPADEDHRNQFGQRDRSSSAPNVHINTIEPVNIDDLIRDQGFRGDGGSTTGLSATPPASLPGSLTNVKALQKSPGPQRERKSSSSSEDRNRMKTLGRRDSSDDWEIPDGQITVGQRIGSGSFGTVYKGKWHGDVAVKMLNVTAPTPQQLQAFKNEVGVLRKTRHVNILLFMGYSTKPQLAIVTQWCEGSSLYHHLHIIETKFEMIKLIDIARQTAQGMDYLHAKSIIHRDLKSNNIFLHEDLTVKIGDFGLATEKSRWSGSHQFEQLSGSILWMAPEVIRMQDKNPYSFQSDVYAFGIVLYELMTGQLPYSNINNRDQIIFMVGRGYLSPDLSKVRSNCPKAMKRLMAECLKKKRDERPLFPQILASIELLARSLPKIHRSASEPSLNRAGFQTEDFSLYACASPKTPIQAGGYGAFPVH
Chain of purified B-Raf protein (P15056 whole entry): as the sequence (P15056 whole entry V600E) above, with E600V counted along it

Regarding `CCCS(=O)(=O)Nc1ccc(F)c(C(=O)c2c[nH]c3ncc(Cl)cc23)c1F` [PLX4720], the “B-Raf ITDRFCETSA activity (in words)” value at B-Raf [1] is “clear evidence of target engagement”.
Take `O=C(NOCCO)c1ccc2cncn2c1Nc1ccc(I)cc1F` [GDC-0623]: the “B-Raf ITDRFCETSA activity (in words)” value on B-Raf [1] (setting [3]) was “inactive”. At B-Raf [1], this compound yielded an EC50 above 31.6 µM.
`COc1cc2ncnc(Oc3cccc(NC(=O)Nc4cc(C(C)(C)C(F)(F)F)on4)c3)c2cc1OC` [CEP-32496]: at B-Raf [2], the “Thermal stabilization of B-Raf in CETSA HT screen (hit call)” value (“Thermal stabilization of B-Raf” below) was “hits”.
With `Cc1ccc(NC(=O)c2cccc(C(C)(C)C#N)c2)cc1Nc1ccc2ncn(C)c(=O)c2c1` [AZ628], the “B-Raf ITDRFCETSA activity (in words)” value at B-Raf [1] (setting [3]) is on record as “clear evidence of target engagement”.
For `CNc1ncc2cc(-c3cc(NC(=O)NCCC(C)(C)C)c(F)cc3C)c(C)nc2n1` [LY3009120], the “B-Raf ITDRFCETSA activity (in words)” value on B-Raf [1] is “clear evidence of target engagement”.
As to `CNS(=O)(=O)Nc1nccc(Cc2c(C)c3ccc(Oc4ncccn4)cc3oc2=O)c1F` [CH-5126766], on B-Raf [1] (setting [3]), the “B-Raf ITDRFCETSA activity (in words)” value is “weak activity”. The EC50 on B-Raf [1] was 10 µM.
On to `Cc1ccc(C(=O)Nc2ccc(CN3CCN(C)CC3)c(C(F)(F)F)c2)cc1C#Cc1cnc2cccnn12` [ponatinib], for which the “Thermal stabilization of B-Raf” value on B-Raf [2] was “showed activity”.
On to `OCCn1cc(-c2ccc3c(c2)CC/C3=N\O)c(-c2ccncc2)n1` [GDC-0879], for which the “Thermal stabilization of B-Raf” value at B-Raf [2] is listed as “hits”.
For `C[C@@H](Oc1cc(-c2cnn(C3CCNCC3)c2)cnc1N)c1c(Cl)ccc(F)c1Cl` [Crizotinib, crizotinib], the “B-Raf ITDRFCETSA activity (in words)” value at B-Raf [1] (setting [3]) was “inactive”.
As for `O=C(Nc1ccc2[nH]nc(-c3ccncc3)c2c1)[C@@H]1CCN(CC(=O)N2CCN(c3ccc(-c4ncccn4)cc3)CC2)C1` [SCH772984], the “B-Raf ITDRFCETSA activity (in words)” value on B-Raf [1] (setting [3]) is “inactive”. This compound returned a concentration giving a half-maximal response (EC50) on B-Raf [1] above 31.6 µM.
Take `CCCS(=O)(=O)Nc1ccc(F)c(C(=O)c2c[nH]c3ncc(-c4ccc(Cl)cc4)cc23)c1F` [Vemurafenib, vemurafenib]: the “Thermal stabilization of B-Raf” value on B-Raf [2] is on record as “active”. For the same compound, the “B-Raf ITDRFCETSA activity (in words)” value on B-Raf [1] is “clear evidence of target engagement”.
Regarding `CCn1c(=O)c(-c2cc(NC(=O)Nc3ccccc3)c(F)cc2Br)cc2cnc(NC)cc21` [DCC-2618], the “Thermal stabilization of B-Raf” value on B-Raf [2] was “Activity was also observed”. Moreover, on purified B-Raf protein, the “Thermal stabilization of purified B-Raf protein by differential scanning fluorimetry” value was “showed thermal stabilization”.
In the case of `CC(C)(C)c1nc(-c2cccc(NS(=O)(=O)c3c(F)cccc3F)c2F)c(-c2ccnc(N)n2)s1` [Dabrafenib, dabrafenib], on B-Raf [2], the “Thermal stabilization of B-Raf” value was “active”. In addition, on B-Raf [1], the “B-Raf ITDRFCETSA activity (in words)” value was “clear evidence of target engagement”.
